The values that follow come from patent US20260137714A1, “METHODS AND COMPOSITIONS FOR TREATMENT OF OPHTHALMIC DISEASE” (Design Therapeutics, Inc., priority 2022, published 2026).

The nature of data set [1]: Ex vivo bovine eye penetration of compounds formulated in water. The format is in vitro ADME. The following applies: for Cornea, R1 / Descemet Membrane/endothelial cells, R1: bovine eye, 30 min at room temperature, LC-MS, replicate R1. How it is done:
Freshly enucleated bovine eyes (Nebraska Scientific) were treated with compound as described previously (Luschmann et al., “Developing an in situ nanosuspension: a novel approach towards the efficient administration of poorly soluble drugs at the anterior eye”, European Journal of Pharmaceutical Sciences (2013)). Individual eyes were rinsed with 10 mL of sterile 0.9% saline then placed in the bottom of a 600 mL glass beaker (Pyrex). A borosilicate glass powder funnel with a 26 mm diameter stem (Eisco Labs) was gently rested on top of the eye with the cornea centered in the cylindrical opening, creating a sealed dosing chamber in which solutions were applied. Eyes were equilibrated in sterile 0.9% saline at room temperature for 20 min then decanted. 500 μL of 0.1 to 0.3% GeneTAC compound was applied to the cornea followed by 167 μL of sterile water to mimic the instillation a 30 μL eye drop into 10 μL of tear fluid. Compound was incubated for 30 min at room temperature after which the funnel was removed. Next, eyes were washed twice with 10 ml of 5.2% aqueous mannitol solution to remove residual compound. Aqueous humor was recovered using a 28-gauge needle and snap frozen in liquid nitrogen. The cornea was then surgically excised, and the Descemet membrane and corneal endothelium (DM/CE) were removed with fine forceps under a dissecting microscope and snap frozen in liquid nitrogen. Compound abundance was quantified in aqueous humor, anterior cornea, and DM/CE using liquid chromatography-mass spectrometry.

The test system of data set [2] is Immortalized Fuchs endothelial corneal dystrophy cells (F35T). The data set can be described thus: In vitro foci assay (nuclear foci by FISH with (CAG)10-Cy3 oligonucleotide). In kind it is cell-based. As to conditions: 48 h treatment, 3000 to 1 nM. How it is done: Immortalized Fuchs endothelial corneal dystrophy cells (F35T) were seeded in black-sided clear-bottomed 96 well plates at 5000 cells per well 16 hours prior to compound treatment. Compounds were dissolved in DMSO to 1 mM and diluted to a final concentration of 3000 to 1 nM in F35T cell culture media. Diluted compounds were added to the F35T cells and incubated for 48 h.
Following treatment, cells were fixed in 4% paraformaldehyde for 20 min, washed twice with PBS, and permeabilized with 70% ethanol at −20 deg C. for 16 h. Following permeabilization, cells were washed twice with PBS then hydrated with 30% formamide plus 2×SSC buffer for 10 min. Nuclear foci were labeled using fluorescent in situ hybridization with a (CAG)10-Cy3 oligonucleotide. Images were collected and automated image analysis was performed on a BioTEK Cytation 5.

Data set [3] is described as follows: Compound solubility in water using in situ salt formation with aqueous HCl. The format is physicochemical. As to conditions: for Result: appearance at the final concentration; for solubility: aqueous buffer, thermodynamic from solid, water with aqueous HCl, in situ salt formation, started at 10 mg/ml, minimum tested 1 mg/ml, read-out: Final Concentration; for pH: pH of the solution at the end of the experiment, before any aq. NaOH; for pH after aq. NaOH: pH of the solution after adjustment with aq. NaOH. How it is done: To determine solubility of candidate compounds, solubility of the compounds was determined at a concentration of 10 mg/ml using in situ salt formation with aqueous HCl. First, 0.5 ml of sterile water was added to 10 mg of dry compound, vortexed, and briefly centrifuged. Next, 0.5 equivalents of 0.025 M HCl were added to the mixture followed by a volume of water that totaled 1 ml. The mixture was stirred continuously for 0.5 to 24 h. […] If the solution was not clear, additional water and/or HCl was added, along with continuous stirring and vortexing until it was determined that the compound had completely dissolved or was refractory to dissolution. The minimum concentration tested was 1 mg/ml. pH values were assessed at the end of the experiment.

In general, IC50 refers to the concentration needed to halve the response being measured.

Each structure is given as a SMILES string. Where only a bound is given, the exact number is not on record here.

With `COCCOCCOCCOCCN(CCCNC(=O)c1nc(NC(=O)c2cc(NC(=O)CCNC(=O)c3nc(NC(=O)CCCNC(=O)c4cc(NC(=O)c5nc(NC(=O)CCNC(=O)c6cc(NC(=O)c7nccn7C)cn6C)cn5C)cn4C)cn3C)cn2C)cn1C)CCOCCOCCOCCOC` [Compound 201], the “Concentrations reached in corneal epithelium and stroma and in Descemet membrane and endothelium, relative to IC50” value in data set [1] (FIG. 1, ex vivo bovine eye distribution) is recorded as “above the IC50 for preventing foci formation as well as above the IC50 for preventing abnormal splicing events”. In addition, in data set [1], the “Cornea, R1” value was determined as 798 nM and the “Descemet Membrane/endothelial cells, R1” value amounted to 46 nM. For the same compound, in data set [2], the IC50 was determined as 167 nM. Besides, in data set [3], the Result result is “Clear solution”, the solubility is at least 10000 µg/mL and the pH is on record as 6.04.

Regarding `CN1CC2(CCN(C(=O)CCNC(=O)c3nc(NC(=O)c4cc(NC(=O)CCNC(=O)c5nc(NC(=O)CCCNC(=O)c6cc(NC(=O)c7nc(NC(=O)CCNC(=O)c8cc(NC(=O)c9nccn9C)cn8C)cn7C)cn6C)cn5C)cn4C)cn3C)CC2)C1` [Compound 202], 213 nM corresponded to half-maximal inhibition in data set [2] (IC50). For the same compound, in data set [3], the Result entry is recorded as “Clear solution”, the solubility was at least 4030 µg/mL, the “pH after aq. NaOH” value is recorded as 6.24 and the pH is recorded as 3.10.

`CN1CC(C2CCN(C(=O)CCNC(=O)c3nc(NC(=O)c4cc(NC(=O)CCNC(=O)c5nc(NC(=O)CCCNC(=O)c6cc(NC(=O)c7nc(NC(=O)CCNC(=O)c8cc(NC(=O)c9nccn9C)cn8C)cn7C)cn6C)cn5C)cn4C)cn3C)CC2)C1` [Compound 203]: half-maximal inhibition in data set [2] (IC50) was put at 384 nM. In data set [3], the Result result is “Clear solution”, the solubility is at least 3180 µg/mL and the pH stood at 8.04.

Compound `Cn1cc(NC(=O)c2nc(NC(=O)CCNC(=O)c3cc(NC(=O)c4nccn4C)cn3C)cn2C)cc1C(=O)NCCCC(=O)Nc1cn(C)c(C(=O)NCCC(=O)Nc2cc(C(=O)Nc3cn(C)c(C(=O)NCCC(=O)N4CCC(C5CNC5)CC4)n3)n(C)c2)n1` [Compound 204] showed an IC50 in data set [2] of 518 nM. For the same compound, in data set [3], the Result result is “Clear solution”, the solubility was at least 3780 µg/mL, the “pH after aq. NaOH” value came to 6.73 and the pH is 2.32.

`CN(C)CCOCCNC(=O)c1nc(NC(=O)c2cc(NC(=O)CCNC(=O)c3nc(NC(=O)CCCNC(=O)c4cc(NC(=O)c5nc(NC(=O)CCNC(=O)c6cc(NC(=O)c7nccn7C)cn6C)cn5C)cn4C)cn3C)cn2C)cn1C` [Compound 205] yielded an IC50 in data set [2] of 65 nM. For the same compound, in data set [3], the Result entry is recorded as “Clear solution”, the solubility is at least 1000 µg/mL and the pH came out at 7.62.

`Cn1cc(NC(=O)c2nc(NC(=O)CCNC(=O)c3cc(NC(=O)c4nccn4C)cn3C)cn2C)cc1C(=O)NCCCC(=O)Nc1cn(C)c(C(=O)NCCC(=O)Nc2cc(C(=O)Nc3cn(C)c(C(=O)NCCCN4CCOCC4)n3)n(C)c2)n1` [Compound 206]: half-maximal inhibition in data set [2] (IC50) required 172 nM. Besides, in data set [3], the Result entry is given as “Clear solution”, the solubility was at least 1000 µg/mL and the pH was determined as 4.96.

In data set [2], `Cn1cc(NC(=O)c2nc(NC(=O)CCNC(=O)c3cc(NC(=O)c4nccn4C)cn3C)cn2C)cc1C(=O)NCCCC(=O)Nc1cn(C)c(C(=O)NCCC(=O)Nc2cc(C(=O)Nc3cn(C)c(C(=O)NCCC(=O)N4CCC(C#CC#CC5CCNCC5)CC4)n3)n(C)c2)n1` [Compound 207] had an IC50 of 33 nM. In data set [3], the Result entry was “Clear solution” and the solubility was at least 10000 µg/mL.

`Cn1cc(NC(=O)c2nc(NC(=O)CCNC(=O)c3cc(NC(=O)c4nccn4C)cn3C)cn2C)cc1C(=O)NCCCC(=O)Nc1cn(C)c(C(=O)NCCC(=O)Nc2cc(C(=O)Nc3cn(C)c(C(=O)NCCC(=O)N4CCC5(CC4)CNC5)n3)n(C)c2)n1` [Compound 208]: the half-inhibitory concentration (IC50) in data set [2] was determined as 186 nM. Moreover, in data set [3], the Result result was “Clear solution”, the solubility is at least 3530 µg/mL, the “pH after aq. NaOH” value amounted to 6.07 and the pH was 2.75.

`CN1CCN(C(=O)CCNC(=O)c2nc(NC(=O)c3cc(NC(=O)CCNC(=O)c4nc(NC(=O)[C@H](N)CCNC(=O)c5cc(NC(=O)c6nc(NC(=O)CCNC(=O)c7cc(NC(=O)c8nccn8C)cn7C)cn6C)cn5C)cn4C)cn3C)cn2C)CC1` [Compound 209]: in data set [2], the IC50 worked out at 1650 nM. Also, in data set [3], the Result result is “Clear solution”, the solubility is at least 10000 µg/mL and the pH was determined as 2.21.

For the compound `Cn1cc(NC(=O)c2nccn2C)cc1C(=O)NCCC(=O)Nc1cn(C)c(C(=O)Nc2cc(C(=O)NCC[C@@H](N)C(=O)Nc3cn(C)c(C(=O)NCCC(=O)Nc4cc(C(=O)Nc5cn(C)c(C(=O)NCCC(=O)N6CCC(C#CC#CC7CCNCC7)CC6)n5)n(C)c4)n3)n(C)c2)n1` [Compound 210], the IC50 in data set [2] was 715 nM. Moreover, in data set [3], the Result entry is recorded as “Clear solution”, the solubility was at least 10000 µg/mL and the pH stood at 2.14.

In data set [2], `CN(C)CCCCNC(=O)c1nc(NC(=O)c2cc(NC(=O)CCNC(=O)c3nc(NC(=O)[C@H](N)CCNC(=O)c4cc(NC(=O)c5nc(NC(=O)CCNC(=O)c6cc(NC(=O)c7nccn7C)cn6C)cn5C)cn4C)cn3C)cn2C)cn1C` [Compound 211] registered an IC50 of 1640 nM. In data set [3], the Result entry is “Clear solution”, the solubility was at least 10000 µg/mL and the pH came out at 2.14.

As for `COCCOCCOCCOCCOCCOCCOc1ccc(C#CCNCCCNC(=O)c2nc(NC(=O)c3cc(NC(=O)CCNC(=O)c4nc(NC(=O)CCCNC(=O)c5cc(NC(=O)c6nc(NC(=O)CCNC(=O)c7cc(NC(=O)c8nccn8C)cn7C)cn6C)cn5C)cn4C)cn3C)cn2C)cc1` [Compound 212], the IC50 in data set [2] worked out at 378 nM. In data set [3], the Result result is on record as “Clear solution”, the solubility is at least 10000 µg/mL and the pH is reported as 1.97.

For the compound `Cn1cc(NC(=O)c2nc(NC(=O)CCNC(=O)c3cc(NC(=O)c4nccn4C)cn3C)cn2C)cc1C(=O)NCCCC(=O)Nc1cn(C)c(C(=O)NCCC(=O)Nc2cc(C(=O)Nc3cn(C)c(C(=O)NCCC(=O)N4CCC(N5CCNCC5)CC4)n3)n(C)c2)n1` [Compound 213], in data set [1], the “Cornea, R1” value is given as 50 nM and the “Descemet Membrane/endothelial cells, R1” value is given as “BQL”. In data set [2], this compound yielded an IC50 of 892 nM. In addition, in data set [3], the Result entry is listed as “Clear solution”, the solubility is at least 3210 µg/mL and the pH turned out to be 6.64.

On to `CCCCn1cc(NC(=O)c2nc(NC(=O)CCNC(=O)c3cc(NC(=O)c4nccn4C)cn3C)cn2C)cc1C(=O)NCC[C@@H](N)C(=O)Nc1cn(C)c(C(=O)NCCC(=O)Nc2cc(C(=O)Nc3cn(C)c(C(=O)NCCC(=O)N4CCN(C)CC4)n3)n(C)c2)n1` [Compound 214], for which the IC50 in data set [2] came out at 237 nM. For the same compound, in data set [3], the Result entry is given as “Clear solution”, the solubility is at least 10000 µg/mL and the pH was 2.16.
